Source: US12691070B2, “Cationic lipids and preparation method thereof” (RiboX Therapeutics HK Limited, priority 2023, dated 2026)

Columns and labels:
[1] = LNP size and polydispersity index (PDI) by dynamic light scattering; format: physicochemical; conditions: for Size: in nm (unit assumed)
How it was run: (§1)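 Ribogreen fluorescence with and without Triton X-100 gave encapsulation as 100% − (intact/lysed) signal; DLS size, PDI and zeta potential measured on a Zetasizer. Particles: 50:10:38.5:1.5 lipid mix, luciferase circRNA or mRNA, lipid:nucleotide 15 or 6, microfluidic assembly at pH 4.5, PBS-dialyzed.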

[2] = LNP zeta potential (Zetasizer); format: physicochemical
How it was run: as §1

[3] = RNA encapsulation efficacy by Quant-IT Ribogreen kit; format: physicochemical; conditions: for Encapsulation Efficiency %: LNP with cirRNA (SEQ ID NO: 1); for Encapsulation Efficiency: LNP with mRNA (SEQ ID NO: 2)
How it was run: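 Dynamic light scattering and zeta potential measurements were run on PBS-dialyzed LNPs, which had been formed by microfluidic mixing at 12 ml/min with final lipid at 1.5 mM to 6 mM. RNA content and percent encapsulation were determined by Ribogreen with and without Triton X-100.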

Hep G2 cells [4] = assay: In vitro expression of firefly-luciferase, Hep G2; format: cell-based
How it was run: (§2)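 First, cells were dosed with RNA lipid nanoparticles encoding firefly luciferase (100 ng/mL). Second, at 72 h they were washed and lysed. Third, lysate luciferase activity was read with a luminometer.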

RAW 264.7 cells [5] = assay: In vitro expression of firefly-luciferase, RAW 264.7; format: cell-based
How it was run: as §2

Hep G2 cells [6] = assay: In vitro toxicity (CellTiter-Glo cell viability), Hep G2; format: cell-based;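 further: percent of untreated cells luminescence signal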
How it was run: (§3)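 RNA-LNPs 1 μg/mL; 72 h post-transfection; CellTiter-Glo luminescence read-out; % viability calculated from signal.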

RAW 264.7 cells [7] = assay: In vitro toxicity (CellTiter-Glo cell viability), RAW 264.7; format: cell-based;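 further: percent of untreated cells luminescence signal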
How it was run: as §3

BALB/C mice [8] = assay: In vivo expression, whole-body luminescence (IVIS)
Experimental: 6-8 week old, female BALB/C mice were injected with 0.05 mg*kg-1 of RNA-LNPs encoding for firefly-luciferase by intravenous injection. At 6 hours post injection, animals were intraperitoneally injected with 15 mg/ml of Luciferin substrate and whole-body luminescence was determined by a bioluminescent in vivo imaging system (IVIS).

[9] = Long term stability analysis / stability under LNP synthesis conditions (Ethanol and PBS pH=7.4); format: physicochemical; conditions: after incorporation into lipid nanoparticles / LNP synthesis conditions
Experimental: The purity of the lipids was tested, after they were incorporated into lipid nanoparticles, only to find that the Reference Lipids were cleaved under LNP synthesis conditions, either via transesterification or hydrolysis.

MCP-I = MCP-I cytokine elevation in serum; format: in vivo; conditions: cirRNA (SEQ ID NO: 1) LNPs, mice
Experimental: 6-8 week old, female BALB/C mice were injected with 0.5 mg*kg-1 of RNA LNPs by intravenous injection. At 2 and 24 hours post injection, animals were bled and sera concentrations of MCP-I were determined by an immunoassay (Luminex).

[10] = tested on: Alanine Aminotransferase (ALT); assay: Liver enzyme elevation in serum, ALT; format: in vivo; conditions: cirRNA (SEQ ID NO: 1) LNPs, BALB/C mice, intravenous 0.5 MPK
Experimental: (§4) 6-8 week old, female BALB/C mice were injected with 0.5 mg*kg-1 of RNA LNPs by intravenous injection. At 2 and 24 hours post injection, animals were bled and sera concentrations of Alanine Aminotransferase (ALT) and Aspartate Aminotransferase (AST) were determined by a blood chemistry analyzer.

[11] = tested on: Aspartate Aminotransferase (AST); assay: Liver enzyme elevation in serum, AST; format: in vivo; conditions: cirRNA (SEQ ID NO: 1) LNPs, BALB/C mice, intravenous 0.5 MPK
Experimental: as §4

BALB/C mice [12] = assay: Local tolerance determination by footpad injection; format: in vivo; conditions: cirRNA (SEQ ID NO: 1) LNP, 0.175 mg*kg-1 subcutaneous into the footpad, 24 hours post minus prior
Experimental: 6-8 week old, female BALB/C mice were injected with 0.175 mg*kg-1 RNA LNPs by subcutaneous injection into the footpad. Prior to, and 24 hours post injections, injected footpad thickness was determined by a caliper.

[13] = cirRNA (SEQ ID NO: 1) LNPs, firefly-luciferase luminescence, Hep G2 cells
[14] = mRNA (SEQ ID NO: 2) LNP, 100 ng/mL, 72 hours post transfection, luciferase activity
[15] = mRNA (SEQ ID NO: 2) LNP, 1 μg/mL, 72 hours post transfection
[16] = mRNA (SEQ ID NO: 2) LNP, 0.05 mg*kg-1 intravenous, 6 hours post injection
[17] = cirRNA (SEQ ID NO: 1) LNPs, firefly-luciferase luminescence, RAW 264.7 cells
[18] = cirRNA (SEQ ID NO: 1) LNPs, Hep G2 cells
[19] = cirRNA (SEQ ID NO: 1) LNPs, RAW 264.7 cells
[20] = cirRNA (SEQ ID NO: 1) LNPs, BALB/C mice

Compound | PDI ([1]; LNP with cirRNA (SEQ ID NO: 1)) | Size ([1]; LNP with cirRNA (SEQ ID NO: 1)) | PDI ([1]; LNP with mRNA (SEQ ID NO: 2)) | Size ([1]; LNP with mRNA (SEQ ID NO: 2)) | Zeta (mV) ([2]; LNP with cirRNA (SEQ ID NO: 1)) | Zeta (mV) ([2]; LNP with mRNA (SEQ ID NO: 2)) | Encapsulation Efficiency % [3] [%] | Encapsulation Efficiency [3] [%] | MCP-I in Sera 2 hours After 0.5 MPK Injection (MCP-I) [pg/mL] | MCP-I in Sera 24 hours After 0.5 MPK Injection (MCP-I) [pg/mL] | In vitro Expression HepG2 (Hep G2 cells [4]; [13]) | In vitro Expression HepG2 (Hep G2 cells [4]; [14]) | In vitro Expression RAW (RAW 264.7 cells [5]; [14]) | In vitro Viability HepG2 (Hep G2 cells [6]; [15]) [%] | In vitro Viability RAW (RAW 264.7 cells [7]; [15]) [%] | In vivo Expression (Whole Body) (BALB/C mice [8]; [16]) | In vitro Expression RAW (RAW 264.7 cells [5]; [17]) | In vitro Viability HepG2 (Hep G2 cells [6]; [18]) [%] | In vitro Viability RAW (RAW 264.7 cells [7]; [19]) [%] | In vivo Expression (Whole Body) (BALB/C mice [8]; [20]) | further results
CCCCC/C=C\C/C=C\CCCCCCCCN(CCCCCC(=O)OCCCCCCCCCCC)CCOC(=O)NCc1ncc[nH]1 [Lipid 90, undecyl 6-((2-((((1H-imidazol-2-yl)methyl)carbamoyl)oxy)ethyl)((9Z,12Z)-octadeca-9,12-dien-1-yl)amino)hexanoate] | 0.06 | 67.68 | 0.06127 | 65.54 | 1.34 | 7.6 | 87 | 88 | 153.05 | 33.08 | 1.27E+05 | 2.16E+05 | 1.21E+05 | 85 | 96 | 2.73E+07 | 8.50E+04 | 95 | 24 | 8.80E+07 | ALT in Sera (IU/L) 2 hours After 0.5 MPK Injection [10]: 40.57 IU/L; ALT in Sera (IU/L) 24 hours After 0.5 MPK Injection [10]: 37.87 IU/L; AST in Sera (IU/L) 2 hours After 0.5 MPK Injection [11]: 77.50 IU/L; AST in Sera (IU/L) 24 hours After 0.5 MPK Injection [11]: 64.70 IU/L; Footpad Thickness (24 h−0 h, mm) (BALB/C mice [12]): 0.20 mm
CCCCCCCCC(CCCCCCCC)OC(=O)CCCCCCCN(CCCCCCCCOC(=O)C(CCCCCC)CCCCCCCC)CCCOC(=O)NCCN(C)C (stereo not shown) [Lipid 344] | 0.1332 | 98.08 | 0.1063 | 97.82 | 2.343 | 1.967 | 97 | 93.45 | 7150.00 | 946.87 | 1.08E+07 | 8.78E+07 | 1.59E+07 | 78 | 88 | 2.15E+09 | 1.97E+06 | 96 | 94 | 7.43E+07 | ALT in Sera (IU/L) 2 hours After 0.5 MPK Injection [10]: 161.67 IU/L; ALT in Sera (IU/L) 24 hours After 0.5 MPK Injection [10]: 204.33 IU/L; AST in Sera (IU/L) 2 hours After 0.5 MPK Injection [11]: 333.67 IU/L; AST in Sera (IU/L) 24 hours After 0.5 MPK Injection [11]: 340.00 IU/L; Footpad Thickness (24 h−0 h, mm) (BALB/C mice [12]): 0.53 mm
CCCCCCCCC(CCCCCCCC)OC(=O)CCCCCCCN(CCCCCCCCOC(=O)C(CCCCCC)CCCCCCCC)CCOC(=O)NCCN1CCCC1 (stereo not shown) [Lipid 148, 8-((8-(heptadecan-9-yloxy)-8-oxooctyl)(2-(((2-(pyrrolidin-1-yl)ethyl)carbamoyl)oxy)ethyl)amino)octyl 2-hexyldecanoate] | 0.03 | 93.46 | 0.07065 | 122.1 | −2.35 | 3.769 | 95 | 93.50 | 6709.61 | 69.59 | 2.35E+06 | 6.39E+02 | 8.69E+05 | 128 | 102 | 1.69E+09 | 2.40E+05 | 47 | 21 | 5.07E+08 | ALT in Sera (IU/L) 2 hours After 0.5 MPK Injection [10]: 53.60 IU/L; ALT in Sera (IU/L) 24 hours After 0.5 MPK Injection [10]: 59.93 IU/L; AST in Sera (IU/L) 2 hours After 0.5 MPK Injection [11]: 136.17 IU/L; AST in Sera (IU/L) 24 hours After 0.5 MPK Injection [11]: 108.13 IU/L; Footpad Thickness (24 h−0 h, mm) (BALB/C mice [12]): 0.23 mm

More lines, main results first:

PDI ([1]; LNP with cirRNA (SEQ ID NO: 1)) | Size ([1]; LNP with cirRNA (SEQ ID NO: 1)) | PDI ([1]; LNP with mRNA (SEQ ID NO: 2)) | Size ([1]; LNP with mRNA (SEQ ID NO: 2)) | Zeta (mV) ([2]; LNP with cirRNA (SEQ ID NO: 1)) | Zeta (mV) ([2]; LNP with mRNA (SEQ ID NO: 2)) | Encapsulation Efficiency % [3] [%] | Encapsulation Efficiency [3] [%] | MCP-I in Sera 2 hours After 0.5 MPK Injection (MCP-I) [pg/mL] | MCP-I in Sera 24 hours After 0.5 MPK Injection (MCP-I) [pg/mL] | Compound | In vitro Expression HepG2 (Hep G2 cells [4]; [13]) | In vitro Expression HepG2 (Hep G2 cells [4]; [14]) | In vitro Expression RAW (RAW 264.7 cells [5]; [14]) | In vitro Viability HepG2 (Hep G2 cells [6]; [15]) [%] | In vitro Viability RAW (RAW 264.7 cells [7]; [15]) [%] | In vivo Expression (Whole Body) (BALB/C mice [8]; [16]) | In vitro Expression RAW (RAW 264.7 cells [5]; [17]) | In vitro Viability HepG2 (Hep G2 cells [6]; [18]) [%] | In vitro Viability RAW (RAW 264.7 cells [7]; [19]) [%] | In vivo Expression (Whole Body) (BALB/C mice [8]; [20]) | further results
0.1152 | 118.3 | 0.08023 | 139.5 | −1.304 | 8.776 | 74 | 84.38 |  |  | CCCCC/C=C\CCOC(=O)CCCCCCCN(CCCCCCCC(=O)OCC/C=C\CCCCC)CCOC(=O)CCCN(C)C [Lipid C, reference compound] | 8.20E+02 | 1.03E+04 | 4.63E+05 | 103 | 88 | 4.72E+05 |  |  |  |  | Stability of the lipid (cleavage, hydrolysis) [9]: extensive hydrolysis of the ester moiety
0.2474 | 94.75 | 0.1254 | 114.3 | 6.123 | 16.37 | 94 | 75.44 | 2643.00 | 78.52 | CCCCCCCCCC(=O)OCCCCCCCN(CCCCCCCCOC(=O)C(CCCCCC)CCCCCCCC)CCOC(=O)NCCN1CCCC1 (stereo not shown) [Lipid 195] | 1.62E+05 | 1.23E+07 | 1.67E+07 | 116 | 77 | 1.63E+08 | 9.03E+03 | 103 | 96 | 3.91E+07 | ALT in Sera (IU/L) 2 hours After 0.5 MPK Injection [10]: 109.00 IU/L; ALT in Sera (IU/L) 24 hours After 0.5 MPK Injection [10]: 35.00 IU/L; AST in Sera (IU/L) 2 hours After 0.5 MPK Injection [11]: 264.00 IU/L; AST in Sera (IU/L) 24 hours After 0.5 MPK Injection [11]: 84.67 IU/L; Footpad Thickness (24 h−0 h, mm) (BALB/C mice [12]): 0.56 mm
